Reference: patent US9850203B2, “Autotaxin inhibitor compounds” (PharmAkea, Inc., priority 2013, dated 2017)

biological target: human autotaxin (ATX) (Homo sapiens (Human), UniProt Q13822); assay: Human Autotaxin Assay; type: biochemical; conditions: concentrated conditioned media from Hep3B cells; LPC substrate, choline release
Summary of the method: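 Autotaxin source: Hep3B conditioned medium concentrated 20-fold, preincubated with compound 15 min at 37° C in lyso-PLD buffer (100 mM Tris pH 9, 500 mM NaCl, 5 mM MgCl2, 5 mM CaCl2, 0.05% Triton X-100, ±0.2% fatty-acid-free HSA). 100 uM LPC (14:0) then added, 1.5-3 hours at 37° C; choline release measured.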

Compound | IC50 [nM]
Cc1c(Sc2cccc(C(=O)O)c2)c2ccc(Cl)c(F)c2n1CC(=O)N1CCC2(CC1)CC(C#N)C2 [Compound 1-19, 3-((6-Chloro-1-(2-(2-cyano-7-azaspiro[3.5]nonan-7-yl)-2-oxoethyl)-7-fluoro-2-methyl-1H-indol-3-yl)thio)benzoic acid] | ≤ 500
Cc1c(Sc2cccc(C(=O)O)c2)c2ccc(Cl)c(F)c2n1CC(=O)N1CCC2(CC1)CNC(=O)O2 [Compound 1-12] | ≤ 500
Cc1c(Sc2cccc(C(=O)O)c2)c2ccc(Cl)c(F)c2n1CC(=O)NC(C)C [Compound 1-1, 3-((6-Chloro-7-fluoro-1-(2-(isopropylamino)-2-oxoethyl)-2-methyl-1H-indol-3-yl)thio)benzoic acid] | ≤ 500
Cc1c(Sc2cccc(C(=O)O)c2)c2ccc(Cl)c(F)c2n1CCC(=O)N1CCc2ccccc21 [Compound 1-26, 3-((6-Chloro-7-fluoro-1-(3-(indolin-1-yl)-3-oxopropyl)-2-methyl-1H-indol-3-yl)thio)benzoic acid] | ≤ 500
Cc1c(Sc2cccc(C(=O)O)c2)c2ccc(Cl)c(F)c2n1CC(=O)N1CCC2(CCOCC2)C1 [Compound 1-46, 3-((6-Chloro-7-fluoro-2-methyl-1-(2-oxo-2-(8-oxa-2-azaspiro[4.5]decan-2-yl)ethyl)-1H-indol-3-yl)thio)benzoic acid] | ≤ 500
Cc1c(Sc2cccc(C(=O)O)c2)c2ccc(Cl)c(F)c2n1CC(=O)N1CCC(OCc2ccc(F)c(F)c2)CC1 [Compound 1-13, 3-((6-Chloro-1-(2-(4-((3,4-difluorobenzyl)oxy)piperidin-1-yl)-2-oxoethyl)-7-fluoro-2-methyl-1H-indol-3-yl)thio)benzoic acid] | ≤ 500
Cc1c(Sc2cccc(C(=O)O)c2)c2ccc(Cl)c(F)c2n1CC(=O)N(C)c1ccccc1 [Compound 1-8, 3-((6-Chloro-7-fluoro-2-methyl-1-(2-(methyl(phenyl)amino)-2-oxoethyl)-1H-indol-3-yl)thio)benzoic acid] | 500 to 3000
Cc1c(Sc2cccc(C(=O)O)c2)c2ccc(Cl)c(F)c2n1CC(=O)N1CC(N2CCC(F)(F)C2)C1 [Compound 1-42, 3-((6-Chloro-1-(2-(3-(3,3-difluoropyrrolidin-1-yl)azetidin-1-yl)-2-oxoethyl)-7-fluoro-2-methyl-1H-indol-3-yl)thio)benzoic acid] | ≤ 500
Cc1c(Sc2cccc(C(=O)O)c2)c2ccc(Cl)c(F)c2n1CC(=O)N1CCc2cc(Cl)ccc21 [Compound 1-71, 3-((6-Chloro-1-(2-(5-chloroindolin-1-yl)-2-oxoethyl)-7-fluoro-2-methyl-1H-indol-3-yl)thio)benzoic acid] | ≤ 500
Cc1c(Sc2cccc(C(=O)O)c2)c2ccc(Cl)c(F)c2n1CC(=O)N1CCC(Cc2ccncc2)CC1 [Compound 1-63, 3-((6-Chloro-7-fluoro-2-methyl-1-(2-oxo-2-(4-(pyridin-4-ylmethyl)piperidin-1-yl)ethyl)-1H-indol-3-yl)thio)benzoic acid] | ≤ 500
Cc1c(Sc2cccc(C(=O)O)c2)c2ccc(Cl)c(F)c2n1CC(=O)N1CCCC2(CNC(=O)O2)C1 (stereo not shown) [Compound 1-69, 3-((6-Chloro-7-fluoro-2-methyl-1-(2-oxo-2-(2-oxo-1-oxa-3,7-diazaspiro[4.5]decan-7-yl)ethyl)-1H-indol-3-yl)thio)benzoic acid] | ≤ 500
Cc1c(Sc2cccc(C(=O)O)c2)c2ccc(Cl)c(F)c2n1CC(=O)Nc1cnoc1 [Compound 1-11, 3-((6-Chloro-7-fluoro-1-(2-(isoxazol-4-ylamino)-2-oxoethyl)-2-methyl-1H-indol-3-yl)thio)benzoic acid] | 500 to 3000
Cc1c(Sc2cccc(C(=O)O)c2)c2ccc(Cl)c(F)c2n1CCC(=O)N1CCCC1 [Compound 1-25, 3-((6-Chloro-7-fluoro-2-methyl-1-(3-oxo-3-(pyrrolidin-1-yl)propyl)-1H-indol-3-yl)thio)benzoic acid] | ≤ 500
Cc1c(Sc2cccc(C(=O)O)c2)c2ccc(Cl)c(F)c2n1CC(=O)N1CC(C)(C)c2ccc(F)cc21 [Compound 1-34, 3-((6-Chloro-7-fluoro-1-(2-(6-fluoro-3,3-dimethylindolin-1-yl)-2-oxoethyl)-2-methyl-1H-indol-3-yl)thio)benzoic acid] | ≤ 500
Cc1c(Sc2cccc(C(=O)O)c2)c2ccc(Cl)c(F)c2n1CC(=O)N1CCCc2ccccc21 [Compound 1-36, 3-((6-Chloro-1-(2-(3,4-dihydroquinolin-1(2H)-yl)-2-oxoethyl)-7-fluoro-2-methyl-1H-indol-3-yl)thio)benzoic acid] | ≤ 500
Cc1c(Sc2cccc(C(=O)O)c2)c2ccc(Cl)c(F)c2n1CC(=O)N1CCC2(CC1)CC(=O)N2 [Compound 1-41, 3-((6-Chloro-7-fluoro-2-methyl-1-(2-oxo-2-(2-oxo-1,7-diazaspiro[3.5]nonan-7-yl)ethyl)-1H-indol-3-yl)thio)benzoic acid] | ≤ 500

Second part, the molecule after the results:

IC50 [nM] | Compound
≤ 500 | Cc1c(Sc2cccc(C(=O)O)c2)c2ccc(Cl)c(F)c2n1CC(=O)N1CCc2ccncc21 [Compound 1-97, 3-((6-Chloro-1-(2-(2,3-dihydro-1H-pyrrolo[2,3-c]pyridin-1-yl)-2-oxoethyl)-7-fluoro-2-methyl-1H-indol-3-yl)thio)benzoic acid]
≤ 500 | Cc1c(Sc2cccc(C(=O)O)c2)c2ccc(Cl)c(F)c2n1CC(=O)N1Cc2ccccc2C1 [Compound 1-91, 3-((6-Chloro-7-fluoro-1-(2-(isoindolin-2-yl)-2-oxoethyl)-2-methyl-1H-indol-3-yl)thio)benzoic acid]
500 to 3000 | Cc1c(Sc2cccc(C(=O)O)c2)c2ccc(Cl)c(F)c2n1CC(=O)N1CCC(Cc2ccc(C(F)(F)F)cc2)C1 (stereo not shown) [Compound 1-78, 3-((6-Chloro-7-fluoro-2-methyl-1-(2-oxo-2-(3-(4-(trifluoromethyl)benzyl)pyrrolidin-1-yl)ethyl)-1H-indol-3-yl)thio)benzoic acid]
≤ 500 | Cc1c(Sc2cccc(C(=O)O)c2)c2ccc(Cl)c(F)c2n1CC(=O)N1CCC12CCN(C)CC2 [Compound 1-87, 3-((6-Chloro-7-fluoro-2-methyl-1-(2-(7-methyl-1,7-diazaspiro[3.5]nonan-1-yl)-2-oxoethyl)-1H-indol-3-yl)thio)benzoic acid]
≤ 500 | Cc1c(Sc2cccc(C(=O)O)c2)c2ccc(Cl)c(F)c2n1CC(=O)N1CCC(O)C1 (stereo not shown) [Compound 1-90, 3-((6-Chloro-7-fluoro-1-(2-(3-hydroxypyrrolidin-1-yl)-2-oxoethyl)-2-methyl-1H-indol-3-yl)thio)benzoic acid]
≤ 500 | Cc1c(Sc2cccc(C(=O)O)c2)c2ccc(Cl)c(F)c2n1CC(=O)N1CCC(Cc2ccncc2)C1 (stereo not shown) [Compound 1-88, 3-((6-Chloro-7-fluoro-2-methyl-1-(2-oxo-2-(3-(pyridin-4-ylmethyl)pyrrolidin-1-yl)ethyl)-1H-indol-3-yl)thio)benzoic acid]
≤ 500 | Cc1c(Sc2cccc(C(=O)O)c2)c2ccc(Cl)c(F)c2n1CC(=O)N1CCC(c2ccncc2)C1 (stereo not shown) [Compound 1-89, 3-((6-Chloro-7-fluoro-2-methyl-1-(2-oxo-2-(3-(pyridin-4-yl)pyrrolidin-1-yl)ethyl)-1H-indol-3-yl)thio)benzoic acid]
≤ 500 | Cc1c(Sc2cccc(C(=O)O)c2)c2ccc(Cl)c(F)c2n1CC(=O)N1CCc2ccc(Cl)cc21 [Compound 1-73, 3-((6-Chloro-1-(2-(6-chloroindolin-1-yl)-2-oxoethyl)-7-fluoro-2-methyl-1H-indol-3-yl)thio)benzoic acid]
≤ 500 | Cc1c(Sc2cccc(C(=O)O)c2F)c2ccc(Cl)c(F)c2n1CC(=O)N1CC[C@@H](CO)C1 [Compound 2-64, (R)-3-((6-Chloro-7-fluoro-1-(2-(3-(hydroxymethyl)pyrrolidin-1-yl)-2-oxoethyl)-2-methyl-1H-indol-3-yl)thio)-2-fluorobenzoic acid]
≤ 500 | Cc1c(Sc2cccc(C(=O)O)c2)c2ccc(Cl)c(F)c2n1CC(=O)N1CC(n2cccn2)C1 [Compound 1-86, 3-((1-(2-(3-(1H-Pyrazol-1-yl)azetidin-1-yl)-2-oxoethyl)-6-chloro-7-fluoro-2-methyl-1H-indol-3-yl)thio)benzoic acid]
≤ 500 | Cc1c(Sc2cccc(C(=O)O)c2F)c2ccc(Cl)c(F)c2n1CC(=O)N1C[C@H](O)[C@@H](N(C)C)C1 [Compound 2-69, 3-((6-Chloro-1-(2-((3S,4S)-3-(dimethylamino)-4-hydroxypyrrolidin-1-yl)-2-oxoethyl)-7-fluoro-2-methyl-1H-indol-3-yl)thio)-2-fluorobenzoic acid]
≤ 500 | Cc1c(Sc2cccc(C(=O)O)c2F)c2ccc(Cl)c(F)c2n1CCN1CC2(CCC2)c2ccccc21 [Compound 2-75, 3-((6-Chloro-7-fluoro-2-methyl-1-(2-(spiro[cyclobutane-1,3′-indolin]-1′-yl)ethyl)-1H-indol-3-yl)thio)-2-fluorobenzoic acid]
≤ 500 | Cc1c(Sc2cccc(C(=O)O)c2F)c2ccc(Cl)c(F)c2n1CC(=O)N1CCC(O)(c2ccccc2)C1 (stereo not shown) [Compound 2-68, 3-((6-Chloro-7-fluoro-1-(2-(3-hydroxy-3-phenylpyrrolidin-1-yl)-2-oxoethyl)-2-methyl-1H-indol-3-yl)thio)-2-fluorobenzoic acid]
≤ 500 | Cc1c(Sc2cccc(C(=O)O)c2F)c2ccc(Cl)c(F)c2n1CC(=O)N1CC2(CC2)c2ccccc21 [Compound 2-55, 3-((6-Chloro-7-fluoro-2-methyl-1-(2-oxo-2-(spiro[cyclopropane-1,3′-indolin]-1′-yl)ethyl)-1H-indol-3-yl)thio)-2-fluorobenzoic acid]
≤ 500 | Cc1c(Sc2cccc(C(=O)O)c2)c2ccc(Cl)c(F)c2n1CC(=O)N1CCCC1c1cnn(C)c1 (stereo not shown) [Compound 1-85, 3-((6-Chloro-7-fluoro-2-methyl-1-(2-(2-(1-methyl-1H-pyrazol-4-yl)pyrrolidin-1-yl)-2-oxoethyl)-1H-indol-3-yl)thio)benzoic acid]
